The subject of the assay is Grover's disease. Briefly: Treatment of patients with Grover's disease (clinical study). It counts as in vivo, human. The following applies: three patients with Grover's disease; diet (no seafood) and chelation with Succimer 200-300 mg TID x 1-2 months. The text has this:
Fourteen patients with Grover's disease (ages 55-85) were randomly selected from a private dermatology practice. All patients were diagnosed using the following criteria: (1) complaints of pruritic eruption of the chest, abdomen or back; (2) physical exam showing discreet small (<2 mm) scattered erythematous scaly or crusted papules of chest, abdomen or back; (3) biopsy showing a superficial perivascular infiltrate of lymphocytes, suprabasal clefts and acantholytic cells. All patients gave verbal consent for a shave biopsy of a skin lesion and a blood test for mercury. Two were women and twelve were men.
Of the fourteen patients with Grover's disease, all had measurable blood mercury (mean—10 u/Liter). All patients complained of pruritus and were aware of skin lesions. All fourteen patients were treated with topical steroids without improvement.

“Also recorded” adds a separate entry of the source. Counter-ions that a name gives are not always drawn.

On to `O=C(O)[C@@H](S)[C@@H](S)C(=O)O` [Succimer, 2,3-dimercaptosuccinic acid or salt thereof], for which the “Effect of treatment on the cutaneous eruption of Grover's disease” value is listed as “clearing of the eruption; also recorded: beneficial effect”.

(Values after US20060172951A1, “Age related macular degeneration and cutaneous signs of mercury toxicity” (priority 2005, published 2006).)
